Test results published in patent publication US20240400562A1, “COMPOUNDS AND COMPOSITIONS FOR TREATING CONDITIONS ASSOCIATED WITH LPA RECEPTOR ACTIVITY” (LHOTSE, BIO, INC., priority 2021, published 2024).

Columns and labels:
human LPA1 = target: T1, human LPA1 (Homo sapiens, UniProt Q92633); test: In vitro LPA1 calcium flux antagonist assay; type: cell-based; conditions: CHO-K1 cells overexpressing human LPA1 and G15a, LPA challenge at EC80, FLIPR calcium mobilization
T1 construct: expressed in transfected cells; host or cells: CHO-K1
Description: CHO-K1 cells overexpressing human LPA1 and G15a were seeded at a total volume of 20 μL (15000 cells/well) into Matrigel pre-coated 384-well plates (corning −3764) and incubated at 37° C. After overnight incubation, the cells were serum starved for 4 h. Assays were performed in dye loading buffer containing 1×Fluo-8 AM (AAT Bioquest, 21080) and 2.5 mM probenecid (Thermo Fisher, 36400) in HBSS/20 mM Hepes. After cell starvation, the medium was replaced with 20 μL of dye loading buffer and incubated at 37° C. for 30 min. Then 5 μL of 5× compound titrated in dye loading buffer was added to the cells and incubated for 30 min followed by LPA challenge at EC80. Calcium mobilization was measured on a FLIPR Tetra (MDS). For LPA EC80 determination, starved cells were incubated with 20 μL of dye loading buffer for 1 h, then 5 μL of 5×LPA titrated in dye loading buffer was added to the cells. Calcium signals induced by LPA was monitors on a FLIPR.
Percentage inhibition is calculated using the following formula: […]

[1] = Pharmacokinetics measurements in mice; type: in vivo; conditions: mouse; CD1 female mice, single oral 5 mg/kg, plasma, mean
Description: The PK properties of selected compounds were measured in CD1 female mice following single oral (5 mg/kg) administration.
Compounds 103 and 104 were prepared in a 1 mg/mL solution of 10% Solutol HS15 and 90%, saline for oral administrations at 5 mL/kg, respectively, and administered to 3 mice/3 groups. After dosing, blood collection was performed by dorsal metatarsal vein sampling at 0.25, 0.5, 1, 2, 4, 6, 8, 24 h, followed by centrifugation to obtain plasma. Samples were stored frozen at −80° C. prior to compound extraction and LC-MS/MS analysis. Pharmacokinetic parameters of compounds 103 and 104 in mice were calculated by standard noncompartmental modeling from the systemic plasma concentration-time profile.

[2] = Pharmacokinetics measurements in rats; type: in vivo; conditions: SD male rats, plasma; for Cl_obs / AUC(0-t) / Cmax / Tmax: mean; for bioavailability / AUC(0-t) / Cmax / Tmax: rat; for bioavailability: PO 5 mg/kg vs IV 1 mg/kg
Description: The PK properties of selected compounds were measured in SD Male rats following single oral (5 mg/kg) and Intravenous Administration (1 mg/kg).
Compounds 103 and 104 were prepared in a 1 mg/mL solution of 10% Solutol HS15 and 90% saline for oral administrations at 5 mL/kg and 0.2 mg/mL solution of 10% Solutol HS15 and 90% saline for intravenous administrations at 1 mL/kg, respectively, and administered to 3 rats per group. After dosing, blood collection was performed by Jugular vein sampling (by cannula) at 0.25, 0.5, 1, 2, 4, 6, 8, 24 h, and 0.083, 0.25, 0.5, 1, 2, 4, 8, 24 h, respectively, followed by centrifugation to obtain plasma. Samples were stored frozen at −80° C. prior to compound extraction and LC-MS/MS analysis. Pharmacokinetic parameters of compounds 103 and 104 in rats were calculated by standard noncompartmental modeling from the systemic plasma concentration-time profile.

T1 sequence (Q92633 whole entry): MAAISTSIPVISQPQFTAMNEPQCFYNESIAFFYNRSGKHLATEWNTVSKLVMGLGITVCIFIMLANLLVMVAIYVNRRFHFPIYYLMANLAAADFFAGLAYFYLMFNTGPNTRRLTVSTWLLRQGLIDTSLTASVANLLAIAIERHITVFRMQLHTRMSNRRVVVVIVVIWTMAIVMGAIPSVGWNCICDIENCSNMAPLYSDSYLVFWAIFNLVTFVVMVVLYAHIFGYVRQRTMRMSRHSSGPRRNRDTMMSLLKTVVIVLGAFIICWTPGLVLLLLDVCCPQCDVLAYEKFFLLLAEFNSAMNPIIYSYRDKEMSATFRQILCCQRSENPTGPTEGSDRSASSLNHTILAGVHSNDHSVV

SMILES: CCOc1cc(C(=O)O)c2nc(C[C@H](OC3CCCC3)[C@H](O)c3ccc(C)c(OC)c3)sc2c1 [Compound 101, 2-((2S,3R)-2-(cyclopentyloxy)-3-hydroxy-3-(3-methoxy-4-methylphenyl)propyl)-6-ethoxybenzo[d]thiazole-4-carboxylic acid]
- IC50 (human LPA1): < 10 nM

SMILES: COc1cc(C(=O)O)c2nc(C[C@H](OC3CCCC3)[C@H](O)c3ccc(C(F)F)c(OC)c3)sc2c1 [Compound 102, 2-((2S,3R)-2-(cyclopentyloxy)-3-(4-(difluoromethyl)-3-methoxyphenyl)-3-hydroxypropyl)-6-methoxybenzo[d]thiazole-4-carboxylic acid]
- IC50 (human LPA1): < 10 nM

SMILES: COc1cc([C@@H](O)[C@H](Cc2nc3c(C(=O)O)cc(CO)cc3s2)OC2CCCC2)cc(OC)c1C [Compound 103, 2-((2S,3R)-2-(cyclopentyloxy)-3-(3,5-dimethoxy-4-methylphenyl)-3-hydroxypropyl)-6-(hydroxymethyl)benzo[d]thiazole-4-carboxylic acid]
- IC50 (human LPA1): 10 to 100 nM
- AUC(0-t) [1]: 1640 ng·h/mL
- Cmax [1]: 463 ng/mL
- Tmax [1]: 30 min
- Cl_obs ([2]; IV 1 mg/kg): 12.9 mL/min/kg
- bioavailability [2]: 27.3%
- AUC(0-t) ([2]; IV 1 mg/kg): 1330 ng·h/mL
- AUC(0-t) ([2]; PO 5 mg/kg): 1790 ng·h/mL
- Cmax ([2]; PO 5 mg/kg): 1490 ng/mL
- Tmax ([2]; PO 5 mg/kg): 15 min

SMILES: COCc1cc(C(=O)O)c2nc(C[C@H](OC3CCCC3)[C@H](O)c3cc(OC)c(C)c(OC)c3)sc2c1 [Compound 104, 2-((2S,3R)-2-(cyclopentyloxy)-3-(3,5-dimethoxy-4-methylphenyl)-3-hydroxypropyl)-6-(methoxymethyl)benzo[d]thiazole-4-carboxylic acid]
- IC50 (human LPA1): < 10 nM
- AUC(0-t) [1]: 6950 ng·h/mL
- Cmax [1]: 3840 ng/mL
- Tmax [1]: 15 min
- Cl_obs ([2]; IV 1 mg/kg): 8.8 mL/min/kg
- bioavailability [2]: 30.3%
- AUC(0-t) ([2]; IV 1 mg/kg): 1900 ng·h/mL
- AUC(0-t) ([2]; PO 5 mg/kg): 2890 ng·h/mL
- Cmax ([2]; PO 5 mg/kg): 1520 ng/mL
- Tmax ([2]; PO 5 mg/kg): 15 min

SMILES: CNc1cc(C(=O)O)c2nc(C[C@H](OC3CCCC3)[C@H](O)c3cc(OC)c(C)c(OC)c3)sc2c1 [Compound 105, 2-((2S,3R)-2-(cyclopentyloxy)-3-(3,5-dimethoxy-4-methylphenyl)-3-hydroxypropyl)-6-(methylamino)benzo[d]thiazole-4-carboxylic acid]
- IC50 (human LPA1): < 10 nM

SMILES: COc1cc([C@@H](O)[C@H](Cc2nc3c(C(=O)O)cc(N(C)C)cc3s2)OC2CCCC2)cc(OC)c1C [Compound 106, 2-((2S,3R)-2-(cyclopentyloxy)-3-(3,5-dimethoxy-4-methylphenyl)-3-hydroxypropyl)-6-(dimethylamino)benzo[d]thiazole-4-carboxylic acid]
- IC50 (human LPA1): < 10 nM

SMILES: COc1cc([C@@H](O)[C@H](Cc2nc3c(C(=O)O)ccc(OC)c3s2)OC2CCCC2)cc(OC)c1C [Compound 107, 2-((2S,3R)-2-(cyclopentyloxy)-3-(3,5-dimethoxy-4-methylphenyl)-3-hydroxypropyl)-7-methoxybenzo[d]thiazole-4-carboxylic acid]
- IC50 (human LPA1): < 10 nM

SMILES: CNc1ccc(C(=O)O)n2nc(C[C@H](OC3CCCC3)[C@H](O)c3cc(OC)c(C)c(OC)c3)cc12 [Compound 108, 2-((2S,3R)-2-(cyclopentyloxy)-3-(3,5-dimethoxy-4-methylphenyl)-3-hydroxypropyl)-4-(methylamino)pyrazolo[1,5-a]pyridine-7-carboxylic acid]
- IC50 (human LPA1): 10 to 100 nM

SMILES: CCOc1ccc(C(=O)O)c2nc(C[C@H](OC3CCCC3)[C@H](O)c3cc(OC)c(C)c(OC)c3)sc12 [Compound 109]
- IC50 (human LPA1): < 10 nM

SMILES: COc1cc([C@@H](O)[C@H](Cc2cc3c(N(C)C)ccc(C(=O)O)n3n2)OC2CCCC2)cc(OC)c1C [Compound 110]
- IC50 (human LPA1): > 100 nM

SMILES: CCOc1cc(C(=O)O)c2nc(C[C@H](OC3CCCC3)[C@H](O)c3cc(OC)cc(OC)c3)sc2c1 [Compound 111]
- IC50 (human LPA1): 10 to 100 nM

SMILES: CCOc1cc(C(=O)O)c2nc(C[C@H](OC3CCCC3)[C@H](O)c3ccc(C(F)F)c(OC)c3)sc2c1 [Compound 112]
- IC50 (human LPA1): 10 to 100 nM

SMILES: CCOc1ccc(C(=O)O)n2nc(C[C@H](OC3CCCC3)[C@H](O)c3cc(OC)c(C)c(OC)c3)cc12 [Compound 113]
- IC50 (human LPA1): 10 to 100 nM

SMILES: CCCc1sc(C[C@H](OC2CCCC2)[C@H](O)c2cc(OC)c(C(C)=O)c(OC)c2)nc1C(C)C(=O)O (some centres unmarked) [Compound 114]
- IC50 (human LPA1): 10 to 100 nM
